From ChEMBL document CHEMBL1201862, “PubChem BioAssay data set” (2004)
Active and inactive are the calls of the source.

What was measured:
[1] = molecular target: Nuclear receptor subfamily 5 group A member 2 (Homo sapiens, UniProt O00482); format: functional, cell-based;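 further: HEK293T cells transfected with LRH-1 and a StAR promoter luciferase reporter; potency for inhibitors that lower LRH-1 driven reporter light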
Steroidogenic factor 1 = Steroidogenic factor 1 (Homo sapiens, UniProt Q13285); experiment: Counterscreen for inverse agonists of the liver receptor homolog-1 (LRH-1; NR5A2): Luminescence-based cell-based high throughput dose response assay to identify inverse agonists of the Steroidogenic Factor 1 Nuclear Receptor (SF1; NR5A1).; format: functional
[2] = nonselective StAR promoter luciferase inhibitors – cell-based, luminescence, luciferase reporter, counter-screen for LRH-1 inverse agonist project, dose response (AID 651969); format: functional
[3] = mouse fibroblast viability loss – cell-based, cherry-pick samples, set 2, cytotoxicity control for T. cruzi growth inhibitor project, dose response (AID 651817); format: functional; conditions: NIH3T3
[4] = intracellular Trypanosoma cruzi inhibitors in host cells – cell-based, plate reader, cherry-pick samples, set 3, dose response (AID 651818); format: functional;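 further: compounds incubated with infected cells for about four days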
Mu-type opioid receptor = Mu-type opioid receptor (Homo sapiens, UniProt P35372); format: functional, cell-based;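 further: U2OS cells with beta-arrestin recruitment to OPRM1 by beta-gal complementation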
[5] = molecular target: 5-hydroxytryptamine receptor 2A (Mus musculus, UniProt P35363); format: functional, cell-based;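 further: CHO-K1 cells with tagged receptor and beta-arrestin; agonist potency measured as compound-induced activation of the receptor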
[6] = molecular target: ADP-ribosylation factor GTPase-activating protein 1 (Rattus norvegicus, UniProt Q62848); experiment: Fluorescence polarization-based biochemical high throughput dose response screening assay to identify inhibitors of ADP-ribosylation factor GTPase activating protein 1 (ARFGAP1).; format: functional
[7] = molecular target: Arf-GAP with SH3 domain, ANK repeat and PH domain-containing protein 1 (Homo sapiens, UniProt Q9ULH1); format: functional;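 further: biochemical fluorescence polarization dose–response screen measuring inhibition of ASAP1; ASAP1 GAP domain stimulating GTP hydrolysis by truncated human ARF1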
[8] = HPDE-C7 pancreatic duct cell viability loss – fluorescence, HTS (AID 430); format: functional, cell-based; conditions: Homo sapiens
[9] = viability loss of HPDE-C7K cells – cell-based, fluorescence, HTS, primary screen (AID 431); format: functional; conditions: Homo sapiens
[10] = viability of PTEN-deleted HCT116 cells – cell-based, HCT116 PTEN knockout, dose response (AID 1047); format: functional;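 further: HCT116 colon tumor cells with PTEN knocked out; cells exposed to compound for 60 hours before readout; potency for loss of cell viability measured by luminescence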
[11] = viability of HCT116 lacking mutant beta-catenin – cell-based, human colon tumor, dose response (AID 1045); format: functional;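 further: HCT116 colon tumor cells with beta catenin knocked out; cells exposed to compound for 60 hours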
[12] = molecular target: T1, Low molecular weight phosphotyrosine protein phosphatase (Homo sapiens, UniProt P24666); format: functional; conditions: read-out: IC50_Mean;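 further: Dose-response confirmation assay measuring inhibition of LMPTP enzyme activity by fluorescence intensity read-out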
T1 sequence (P24666 whole entry): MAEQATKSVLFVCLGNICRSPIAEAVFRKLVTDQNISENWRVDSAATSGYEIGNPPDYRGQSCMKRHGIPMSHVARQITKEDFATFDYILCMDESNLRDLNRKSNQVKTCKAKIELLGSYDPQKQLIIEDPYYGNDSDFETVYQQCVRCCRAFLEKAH

[13] = molecular target: T2, Tyrosine-protein phosphatase non-receptor type 22 (Homo sapiens, UniProt Q9Y2R2); experiment: PTPN22 enzyme inhibitors – biochemical, fluorescence, LYP catalytic domain, selectivity assay for LMPTP inhibitor project, dose response (AID 652006); format: functional; conditions: read-out: IC50_Mean
T2 sequence (Q9Y2R2 whole entry): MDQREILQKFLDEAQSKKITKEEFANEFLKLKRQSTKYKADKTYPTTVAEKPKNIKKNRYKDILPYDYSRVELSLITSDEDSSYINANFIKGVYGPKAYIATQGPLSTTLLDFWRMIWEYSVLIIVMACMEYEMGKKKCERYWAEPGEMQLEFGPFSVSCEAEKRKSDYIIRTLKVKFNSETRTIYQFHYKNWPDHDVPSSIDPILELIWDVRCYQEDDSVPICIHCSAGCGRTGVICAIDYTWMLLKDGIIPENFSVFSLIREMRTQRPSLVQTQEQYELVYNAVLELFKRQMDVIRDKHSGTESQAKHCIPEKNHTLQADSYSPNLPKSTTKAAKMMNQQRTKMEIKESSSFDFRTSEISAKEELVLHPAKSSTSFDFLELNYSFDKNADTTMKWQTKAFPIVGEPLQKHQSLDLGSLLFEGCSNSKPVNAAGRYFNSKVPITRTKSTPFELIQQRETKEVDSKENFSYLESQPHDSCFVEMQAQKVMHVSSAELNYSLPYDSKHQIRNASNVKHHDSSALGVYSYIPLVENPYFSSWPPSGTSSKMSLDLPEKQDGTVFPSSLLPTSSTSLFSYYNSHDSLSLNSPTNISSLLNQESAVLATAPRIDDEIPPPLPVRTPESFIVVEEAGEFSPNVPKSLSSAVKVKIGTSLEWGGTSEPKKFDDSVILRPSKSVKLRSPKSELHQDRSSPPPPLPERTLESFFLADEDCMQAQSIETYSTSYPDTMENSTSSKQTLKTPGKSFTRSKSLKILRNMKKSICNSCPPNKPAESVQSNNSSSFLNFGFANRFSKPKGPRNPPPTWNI

Chain of Steroidogenic factor 1 (Q13285 whole entry): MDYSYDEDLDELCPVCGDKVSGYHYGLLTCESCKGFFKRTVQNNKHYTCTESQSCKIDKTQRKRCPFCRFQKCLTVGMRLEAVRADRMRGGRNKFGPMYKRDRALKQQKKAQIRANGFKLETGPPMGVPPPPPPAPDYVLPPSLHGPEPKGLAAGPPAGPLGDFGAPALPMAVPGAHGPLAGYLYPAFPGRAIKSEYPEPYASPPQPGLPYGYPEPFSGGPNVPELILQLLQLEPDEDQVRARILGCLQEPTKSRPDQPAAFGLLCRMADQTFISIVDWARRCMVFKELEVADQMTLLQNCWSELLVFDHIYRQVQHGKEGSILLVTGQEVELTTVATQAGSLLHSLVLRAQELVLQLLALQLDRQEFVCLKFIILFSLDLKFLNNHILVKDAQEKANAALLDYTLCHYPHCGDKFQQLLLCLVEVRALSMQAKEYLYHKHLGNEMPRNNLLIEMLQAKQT
Chain of Nuclear receptor subfamily 5 group A member 2 (O00482 whole entry): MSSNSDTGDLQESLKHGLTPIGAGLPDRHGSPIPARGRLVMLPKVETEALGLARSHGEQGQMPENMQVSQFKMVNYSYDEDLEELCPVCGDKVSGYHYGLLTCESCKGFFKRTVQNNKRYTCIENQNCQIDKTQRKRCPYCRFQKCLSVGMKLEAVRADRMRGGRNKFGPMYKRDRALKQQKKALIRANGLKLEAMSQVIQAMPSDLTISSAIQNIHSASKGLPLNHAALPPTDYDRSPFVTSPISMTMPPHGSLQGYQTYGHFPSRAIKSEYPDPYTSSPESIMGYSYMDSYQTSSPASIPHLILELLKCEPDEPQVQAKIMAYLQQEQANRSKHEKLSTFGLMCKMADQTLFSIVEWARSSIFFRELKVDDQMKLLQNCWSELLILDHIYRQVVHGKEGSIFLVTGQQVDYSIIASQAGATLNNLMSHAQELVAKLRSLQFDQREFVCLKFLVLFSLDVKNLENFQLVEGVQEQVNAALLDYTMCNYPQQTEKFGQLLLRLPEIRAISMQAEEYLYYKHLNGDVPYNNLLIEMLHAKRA
Chain of ADP-ribosylation factor GTPase-activating protein 1 (Q62848 whole entry, the tested form may be a part): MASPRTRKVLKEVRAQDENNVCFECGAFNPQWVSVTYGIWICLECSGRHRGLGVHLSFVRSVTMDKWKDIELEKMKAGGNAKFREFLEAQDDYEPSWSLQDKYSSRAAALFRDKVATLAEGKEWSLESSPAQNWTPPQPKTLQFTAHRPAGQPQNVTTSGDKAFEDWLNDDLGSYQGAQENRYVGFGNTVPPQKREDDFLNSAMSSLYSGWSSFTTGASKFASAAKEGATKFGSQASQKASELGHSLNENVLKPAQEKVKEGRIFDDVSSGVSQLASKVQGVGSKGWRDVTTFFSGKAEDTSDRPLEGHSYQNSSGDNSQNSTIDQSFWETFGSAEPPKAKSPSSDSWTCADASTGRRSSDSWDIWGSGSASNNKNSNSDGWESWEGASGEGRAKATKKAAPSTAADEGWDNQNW
Chain of 5-hydroxytryptamine receptor 2A (P35363 whole entry): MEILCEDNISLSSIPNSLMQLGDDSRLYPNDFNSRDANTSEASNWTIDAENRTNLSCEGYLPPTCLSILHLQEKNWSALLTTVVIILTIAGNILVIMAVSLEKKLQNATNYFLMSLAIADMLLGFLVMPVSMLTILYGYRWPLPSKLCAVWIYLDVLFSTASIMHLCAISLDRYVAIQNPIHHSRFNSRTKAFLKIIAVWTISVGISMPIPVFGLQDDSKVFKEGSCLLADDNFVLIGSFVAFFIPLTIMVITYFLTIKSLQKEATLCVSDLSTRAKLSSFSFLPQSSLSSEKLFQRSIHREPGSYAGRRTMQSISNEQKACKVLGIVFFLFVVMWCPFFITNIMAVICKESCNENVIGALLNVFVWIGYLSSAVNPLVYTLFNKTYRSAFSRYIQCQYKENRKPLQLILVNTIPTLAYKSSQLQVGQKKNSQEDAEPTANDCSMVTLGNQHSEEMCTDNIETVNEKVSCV
Chain of Arf-GAP with SH3 domain, ANK repeat and PH domain-containing protein 1 (Q9ULH1 whole entry, the tested form may be a part): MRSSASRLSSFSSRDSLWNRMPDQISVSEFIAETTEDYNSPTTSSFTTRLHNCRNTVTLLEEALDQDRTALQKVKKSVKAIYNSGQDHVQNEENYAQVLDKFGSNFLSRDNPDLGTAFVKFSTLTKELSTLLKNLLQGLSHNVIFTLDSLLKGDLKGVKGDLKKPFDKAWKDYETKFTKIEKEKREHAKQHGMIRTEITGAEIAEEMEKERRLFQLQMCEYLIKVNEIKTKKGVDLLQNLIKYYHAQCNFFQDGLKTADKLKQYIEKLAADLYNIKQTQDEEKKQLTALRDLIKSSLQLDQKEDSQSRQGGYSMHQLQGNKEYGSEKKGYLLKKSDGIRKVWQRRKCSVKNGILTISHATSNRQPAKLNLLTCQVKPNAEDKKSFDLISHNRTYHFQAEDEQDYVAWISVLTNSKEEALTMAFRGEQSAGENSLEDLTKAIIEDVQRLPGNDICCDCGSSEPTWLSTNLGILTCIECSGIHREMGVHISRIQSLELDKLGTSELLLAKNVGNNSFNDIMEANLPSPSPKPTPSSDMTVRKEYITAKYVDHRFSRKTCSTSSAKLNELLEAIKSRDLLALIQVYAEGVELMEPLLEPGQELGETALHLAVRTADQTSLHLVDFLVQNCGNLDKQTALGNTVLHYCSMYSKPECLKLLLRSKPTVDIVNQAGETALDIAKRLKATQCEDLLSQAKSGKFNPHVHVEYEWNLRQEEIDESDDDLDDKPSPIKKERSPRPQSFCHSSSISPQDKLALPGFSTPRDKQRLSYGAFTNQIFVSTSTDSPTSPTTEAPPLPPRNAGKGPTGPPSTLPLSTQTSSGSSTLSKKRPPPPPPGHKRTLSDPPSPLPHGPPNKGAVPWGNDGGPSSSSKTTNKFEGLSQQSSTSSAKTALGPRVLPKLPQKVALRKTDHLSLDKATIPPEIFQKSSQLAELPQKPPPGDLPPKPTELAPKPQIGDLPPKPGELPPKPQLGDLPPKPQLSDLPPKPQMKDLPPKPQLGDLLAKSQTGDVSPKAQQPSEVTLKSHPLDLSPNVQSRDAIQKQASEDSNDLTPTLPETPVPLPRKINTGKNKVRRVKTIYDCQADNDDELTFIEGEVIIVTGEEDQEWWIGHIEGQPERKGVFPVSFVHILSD
Chain of Mu-type opioid receptor (P35372 whole entry): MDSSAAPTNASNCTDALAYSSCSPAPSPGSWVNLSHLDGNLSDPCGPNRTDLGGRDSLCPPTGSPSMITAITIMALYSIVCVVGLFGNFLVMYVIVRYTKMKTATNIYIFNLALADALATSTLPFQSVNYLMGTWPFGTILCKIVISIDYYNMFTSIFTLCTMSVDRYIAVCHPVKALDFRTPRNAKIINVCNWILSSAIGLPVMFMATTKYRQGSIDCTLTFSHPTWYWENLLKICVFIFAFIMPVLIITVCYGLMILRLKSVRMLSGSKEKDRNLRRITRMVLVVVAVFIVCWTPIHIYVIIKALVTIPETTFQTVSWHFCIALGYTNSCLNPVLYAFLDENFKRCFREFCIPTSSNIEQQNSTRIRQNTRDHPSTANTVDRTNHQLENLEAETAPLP

For `CCOc1ccc(NC(=O)COC(=O)c2ccc3c(c2)OCCO3)cc1`, the IC50 [1] was 12.9 µM (inactive), the IC50 (Steroidogenic factor 1) was 1.01 µM (active) and the IC50 [2] was 35.9 µM (inactive).

With `COc1ccc(CN(C)C[C@@H]2Oc3c(NC(=O)Nc4ccc(C(F)(F)F)cc4)cccc3C(=O)N([C@H](C)CO)C[C@H]2C)cc1` the AC50 [3] was 11.3 µM (active) and the AC50 [4] was 1.8 µM (active).

For `Cc1ccccc1C(=O)O/N=C(\c1ccccc1)c1ccccn1`, the EC50 (Mu-type opioid receptor) was 92.5 µM (inactive) and the EC50 [5] was 20.2 µM (inactive).

In the case of `COC(=O)Cn1cc(/C=N/NC(=O)COc2cccc3cccnc23)c2ccccc21`, the IC50 [6] is reported as 119 µM (inactive) and the IC50 [7] is reported as 116 µM (inactive).

For `CC(=O)Nc1ccc(S(=O)(=O)N2CCN(c3nc(NC4CCCC4)c4ccccc4n3)CC2)cc1`, the EC50 [8] was 12.4 µM (active), the EC50 [9] was 13.2 µM (active) and the EC50 [10] was 13.7 µM (active). The EC50 [11] was 12.7 µM (active), the IC50 [12] was 20.7 µM (inactive) and the IC50 [13] was 28.2 µM (inactive).
